Patent EP1190034B1, “BLEACH ACTIVATOR BASED ON INULIN” (Coöperatie Cosun U.A., priority 1999, dated 2001)

How the values were obtained:
Solubility in water = type: physicochemical
[1] = Bleach activator test procedure (peracetic acid liberated, iodometric titration); settings: hydrogen peroxide, 30 °C, pH 11.6, 4 minutes, correction factor 1.10
Experimental: The bleach activator property is determined on the basis of the quantity of peracetic acid that can be liberated from the product. […] The best characteristics are found when the acylation is carried out in water at controlled pH (Table 1).
Mix the following solutions: • 15 ml 0.6% hydrogen peroxide solution • 10 ml saturated sodium pyrophosphate solution • 10 ml 0.05% EDTA solution. • Make up to 100 ml with demineralised water and heat to 30 °C. • Add the heated mixture to an accurately weighed amount (75 - 90 mg) of bleach activator in a 600 ml glass beaker. • Adjust the pH to 11.6 with 0.1 M NaOH solution. • Precisely 4 minutes after the first addition add 30 ml 0.1% catalase solution. • Adjust the pH to 10.5 with 0.5 M sulphuric acid solution and cool the solution to 0 - 3 °C. • Precisely 6 minutes after the first addition add 15 ml 100% acetic acid solution and 15 ml 10% potassium iodide solution. • Titrate the liberated iodine against a 0.1 M thiosulphate solution. The mol% peracetic acid liberated from the bleach activator can be calculated from the quantity of thiosulphate solution required, 2 mmol thiosulphate corresponding to 1 mmol peracetic acid formed. The determinations were corrected for the loss of peracetic acid during the measurement. The correction factor for this loss is 1.10.

- Solubility (%) (Solubility in water): 0.1%
SMILES: CC(=O)N(CCN(C(C)=O)C(C)=O)C(C)=O [TAED, tetraacetylethylenediamine]
- Peracetate formed (mol%) ([1]; 100 x number of mols of peracetate formed / total number of mols of acetyl groups in product): 45 mol%
- mol peracetate/ kg product [1]: 7.9 mol peracetate/ kg product
